Source: paper PMC4505863 (ACS Chemical Neuroscience, 2014)
Entries after “also recorded” stand apart in the source; their conditions may differ. Read-outs that look alike come from different tables or passages of the source.

How the values were obtained:
5-HT1D = 5-HT1D (Homo sapiens, UniProt P28221); test: PDSP screening affinity 5-HT1D; assay type: binding
5-HT7 = 5-HT7 (Homo sapiens, UniProt P34969); test: PDSP screening affinity 5-HT7; assay type: binding
5-HT6 = 5-HT6 (Homo sapiens, UniProt P50406); test: PDSP screening affinity 5-HT6; assay type: binding
Chain of 5-HT6 (P50406 whole entry): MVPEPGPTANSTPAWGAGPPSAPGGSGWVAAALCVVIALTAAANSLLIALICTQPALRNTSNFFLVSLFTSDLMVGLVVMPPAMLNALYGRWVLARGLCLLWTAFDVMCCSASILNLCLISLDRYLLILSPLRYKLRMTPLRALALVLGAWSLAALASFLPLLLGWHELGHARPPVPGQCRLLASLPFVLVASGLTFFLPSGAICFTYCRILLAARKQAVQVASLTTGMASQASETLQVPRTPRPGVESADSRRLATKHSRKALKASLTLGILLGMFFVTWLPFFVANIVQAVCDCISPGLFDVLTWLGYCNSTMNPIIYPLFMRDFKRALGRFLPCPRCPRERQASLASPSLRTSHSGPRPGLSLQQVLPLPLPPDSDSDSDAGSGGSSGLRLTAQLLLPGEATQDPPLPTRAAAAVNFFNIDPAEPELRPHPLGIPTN

5-HT3 = target: T1, 5-HT3 (Homo sapiens, UniProt P46098); test: PDSP screening affinity 5-HT3; assay type: binding
T1 sequence (P46098 24-478): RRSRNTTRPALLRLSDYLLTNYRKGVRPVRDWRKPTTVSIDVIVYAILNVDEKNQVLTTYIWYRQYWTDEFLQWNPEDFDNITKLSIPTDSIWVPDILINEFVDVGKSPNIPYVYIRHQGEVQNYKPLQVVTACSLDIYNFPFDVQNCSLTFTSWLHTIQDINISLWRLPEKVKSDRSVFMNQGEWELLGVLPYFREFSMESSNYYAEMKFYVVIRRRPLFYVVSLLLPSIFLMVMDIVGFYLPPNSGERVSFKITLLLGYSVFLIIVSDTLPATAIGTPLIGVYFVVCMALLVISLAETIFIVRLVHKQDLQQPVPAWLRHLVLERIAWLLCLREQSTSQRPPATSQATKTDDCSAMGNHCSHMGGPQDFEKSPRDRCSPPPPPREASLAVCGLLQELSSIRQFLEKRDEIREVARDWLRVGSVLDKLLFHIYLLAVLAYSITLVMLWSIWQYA

r5-HT2C = target: T2, r5-HT2C (Rattus norvegicus, UniProt P08909); test: Ca2+ mobilization assay; assay type: cell-based; conditions: for Emax: read-out: r5-HT2C Emax
T2 sequence (P08909 33-460): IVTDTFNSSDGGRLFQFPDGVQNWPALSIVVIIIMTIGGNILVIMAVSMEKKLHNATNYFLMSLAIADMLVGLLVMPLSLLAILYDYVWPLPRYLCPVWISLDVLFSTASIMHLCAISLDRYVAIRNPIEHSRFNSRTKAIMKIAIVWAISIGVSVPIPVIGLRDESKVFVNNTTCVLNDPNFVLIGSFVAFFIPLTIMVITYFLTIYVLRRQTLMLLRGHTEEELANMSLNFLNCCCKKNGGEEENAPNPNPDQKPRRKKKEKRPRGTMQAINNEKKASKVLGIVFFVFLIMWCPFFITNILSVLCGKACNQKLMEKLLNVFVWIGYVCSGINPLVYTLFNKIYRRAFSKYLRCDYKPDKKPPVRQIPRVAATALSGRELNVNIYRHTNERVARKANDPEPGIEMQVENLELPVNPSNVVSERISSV

5-HT2B = 5-HT2B (Homo sapiens, UniProt P41595); test: PDSP screening affinity 5-HT2B; assay type: binding
Chain of 5-HT2B (P41595 whole entry): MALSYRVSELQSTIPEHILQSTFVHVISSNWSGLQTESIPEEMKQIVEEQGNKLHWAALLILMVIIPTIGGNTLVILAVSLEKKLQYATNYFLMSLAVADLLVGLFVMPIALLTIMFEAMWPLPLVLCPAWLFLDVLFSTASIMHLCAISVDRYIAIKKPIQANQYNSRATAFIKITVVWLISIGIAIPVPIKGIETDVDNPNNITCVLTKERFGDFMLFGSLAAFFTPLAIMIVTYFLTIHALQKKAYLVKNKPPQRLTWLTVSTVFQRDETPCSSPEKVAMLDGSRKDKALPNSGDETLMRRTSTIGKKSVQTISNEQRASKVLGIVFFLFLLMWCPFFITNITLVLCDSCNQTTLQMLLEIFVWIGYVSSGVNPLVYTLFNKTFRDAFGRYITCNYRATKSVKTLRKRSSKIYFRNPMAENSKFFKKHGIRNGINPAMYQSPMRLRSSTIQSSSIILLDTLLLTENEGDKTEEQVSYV

human 5-HT2C receptor [1] = target: T3, human 5-HT2C receptor (Homo sapiens, UniProt P28335); test: h5-HT2C affinity, agonist radioligand [125I]DOI; assay type: binding
T3 sequence (P28335 33-458): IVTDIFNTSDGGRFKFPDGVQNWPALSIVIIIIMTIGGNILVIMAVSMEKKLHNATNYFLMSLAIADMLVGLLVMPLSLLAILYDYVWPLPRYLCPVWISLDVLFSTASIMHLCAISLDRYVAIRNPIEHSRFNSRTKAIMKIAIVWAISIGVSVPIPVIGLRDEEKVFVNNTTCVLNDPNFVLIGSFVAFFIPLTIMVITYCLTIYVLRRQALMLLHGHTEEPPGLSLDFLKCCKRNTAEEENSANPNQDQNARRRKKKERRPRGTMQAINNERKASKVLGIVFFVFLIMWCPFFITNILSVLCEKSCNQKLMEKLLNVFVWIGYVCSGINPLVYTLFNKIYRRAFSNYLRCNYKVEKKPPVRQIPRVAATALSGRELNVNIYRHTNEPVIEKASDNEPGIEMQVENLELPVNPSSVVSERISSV

h5-HT2C = target: T4, h5-HT2C (Homo sapiens, UniProt P28335); test: Ca2+ mobilization assay; assay type: cell-based; conditions: for Emax: HEK293, read-out: h5HT2C Emax; for EC50: h5HT2C EC50, Ca2+ mobilization
T4 sequence (P28335 33-458): T3 sequence (P28335 33-458)

5-HT2A receptor [2] = target: T5, 5-HT2A receptor (Homo sapiens, UniProt P28223); test: h5-HT2A affinity, antagonist radioligand [3H]ketanserin; assay type: binding
T5 sequence (P28223 whole entry): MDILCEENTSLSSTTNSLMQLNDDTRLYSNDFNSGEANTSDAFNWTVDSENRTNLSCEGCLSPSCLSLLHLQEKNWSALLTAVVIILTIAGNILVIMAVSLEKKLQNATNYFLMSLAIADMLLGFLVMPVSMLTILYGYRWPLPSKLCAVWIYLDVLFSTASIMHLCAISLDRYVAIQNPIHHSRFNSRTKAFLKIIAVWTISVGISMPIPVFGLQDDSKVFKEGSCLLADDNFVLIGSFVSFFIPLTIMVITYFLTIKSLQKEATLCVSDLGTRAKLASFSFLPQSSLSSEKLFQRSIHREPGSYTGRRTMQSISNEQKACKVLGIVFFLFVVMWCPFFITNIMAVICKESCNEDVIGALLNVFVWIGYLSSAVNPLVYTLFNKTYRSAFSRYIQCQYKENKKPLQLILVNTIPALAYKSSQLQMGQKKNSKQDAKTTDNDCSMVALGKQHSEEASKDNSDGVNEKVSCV

r5-HT2A = r5-HT2A (Rattus norvegicus, UniProt P14842); test: Ca2+ mobilization assay; assay type: cell-based; conditions: for EC50: r5-HT2A EC50, Ca2+ mobilization; for Emax: read-out: r5-HT2A Emax, percentage of the maximum response to 5-HT
Chain of r5-HT2A (P14842 whole entry): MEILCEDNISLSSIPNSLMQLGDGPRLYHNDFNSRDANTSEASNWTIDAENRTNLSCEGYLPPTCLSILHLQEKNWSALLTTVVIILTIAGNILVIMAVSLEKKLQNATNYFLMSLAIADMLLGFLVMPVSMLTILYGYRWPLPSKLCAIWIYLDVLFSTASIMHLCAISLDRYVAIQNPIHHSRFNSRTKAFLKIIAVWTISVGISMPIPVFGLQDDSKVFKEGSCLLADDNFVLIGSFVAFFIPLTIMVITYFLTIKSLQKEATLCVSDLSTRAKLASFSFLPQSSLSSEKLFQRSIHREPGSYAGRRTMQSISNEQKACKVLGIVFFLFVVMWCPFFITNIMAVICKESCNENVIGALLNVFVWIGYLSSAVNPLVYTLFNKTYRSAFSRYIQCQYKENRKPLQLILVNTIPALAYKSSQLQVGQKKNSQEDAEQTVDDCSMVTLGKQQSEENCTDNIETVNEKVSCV

5-HT1B = 5-HT1B (Homo sapiens, UniProt P28222); test: PDSP screening affinity 5-HT1B; assay type: binding
Chain of 5-HT1B (P28222 whole entry): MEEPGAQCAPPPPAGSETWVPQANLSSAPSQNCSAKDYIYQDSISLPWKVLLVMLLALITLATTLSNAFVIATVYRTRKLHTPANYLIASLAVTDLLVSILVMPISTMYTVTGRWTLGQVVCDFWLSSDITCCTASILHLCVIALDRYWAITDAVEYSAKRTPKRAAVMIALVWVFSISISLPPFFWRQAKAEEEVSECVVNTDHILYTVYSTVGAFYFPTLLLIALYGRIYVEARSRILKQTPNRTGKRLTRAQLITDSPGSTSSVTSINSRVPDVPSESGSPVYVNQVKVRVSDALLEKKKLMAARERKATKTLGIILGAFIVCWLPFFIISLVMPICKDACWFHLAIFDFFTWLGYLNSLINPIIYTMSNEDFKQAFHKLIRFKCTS

5-HT1A = target: T6, 5-HT1A (Homo sapiens, UniProt P08908); test: PDSP screening affinity 5-HT1A; assay type: binding; conditions: 5-HT1A affinity
T6 sequence (P08908 1-422): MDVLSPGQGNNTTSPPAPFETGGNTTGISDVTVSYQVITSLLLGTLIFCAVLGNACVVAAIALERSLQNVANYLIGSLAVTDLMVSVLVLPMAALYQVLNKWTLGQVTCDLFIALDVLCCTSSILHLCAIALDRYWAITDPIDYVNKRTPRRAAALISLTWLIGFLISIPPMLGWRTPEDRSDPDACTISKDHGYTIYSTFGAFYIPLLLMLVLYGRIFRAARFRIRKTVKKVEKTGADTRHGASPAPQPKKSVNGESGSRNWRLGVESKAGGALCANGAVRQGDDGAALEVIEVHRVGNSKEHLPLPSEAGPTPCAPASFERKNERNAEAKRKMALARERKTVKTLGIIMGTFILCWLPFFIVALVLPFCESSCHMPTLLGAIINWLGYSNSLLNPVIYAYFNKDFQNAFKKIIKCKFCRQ

human 5-HT2C receptor [3] = target: T3, human 5-HT2C receptor; test: h5-HT2C affinity, antagonist radioligand [3H]mesulergine; assay type: binding
h5-HT2A = h5-HT2A (Homo sapiens, UniProt P28223); test: Ca2+ mobilization assay; assay type: cell-based; conditions: for Emax: HEK293, read-out: h5-HT2A Emax, percentage of the maximum response to 5-HT
Chain of h5-HT2A (P28223 whole entry): as the sequence (P28223 whole entry) above

5-ht1e = 5-ht1e (Homo sapiens, UniProt P28566); test: PDSP screening affinity 5-ht1e; assay type: binding
Chain of 5-ht1e (P28566 whole entry): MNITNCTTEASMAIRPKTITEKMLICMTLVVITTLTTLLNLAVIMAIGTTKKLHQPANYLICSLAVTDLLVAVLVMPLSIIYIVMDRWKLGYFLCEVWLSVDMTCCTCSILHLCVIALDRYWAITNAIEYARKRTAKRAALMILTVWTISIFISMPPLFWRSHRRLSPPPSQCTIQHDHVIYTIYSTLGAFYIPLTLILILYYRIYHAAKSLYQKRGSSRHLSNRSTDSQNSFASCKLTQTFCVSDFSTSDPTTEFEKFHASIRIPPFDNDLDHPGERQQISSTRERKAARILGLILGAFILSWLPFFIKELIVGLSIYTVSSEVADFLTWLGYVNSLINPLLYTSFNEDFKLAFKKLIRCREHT

5-HT2A receptor [4] = target: T5, 5-HT2A receptor; test: h5-HT2A affinity, agonist radioligand [125I]DOI; assay type: binding
h5-HT2B = h5-HT2B (Homo sapiens, UniProt P41595); test: Ca2+ mobilization assay; assay type: cell-based; conditions: for Emax: HEK293, read-out: h5-HT2B Emax; for EC50: h5-HT2B EC50, Ca2+ mobilization
Chain of h5-HT2B (P41595 whole entry): as the sequence (P41595 whole entry) above

Male C57BL/6J mice = test: Mouse head twitch response; conditions: for max counts: HTR counts; for ED50: Mus musculus, sc, read-out: ED50 mg/kg (95% CI), mouse head twitch; for magnitude of peak effect × vehicle / maximally effective dose: mouse head twitch
5-ht5a = 5-ht5a (Homo sapiens, UniProt P47898); test: PDSP screening affinity 5-ht5a; assay type: binding; conditions: 5-ht5a affinity
Chain of 5-ht5a (P47898 whole entry): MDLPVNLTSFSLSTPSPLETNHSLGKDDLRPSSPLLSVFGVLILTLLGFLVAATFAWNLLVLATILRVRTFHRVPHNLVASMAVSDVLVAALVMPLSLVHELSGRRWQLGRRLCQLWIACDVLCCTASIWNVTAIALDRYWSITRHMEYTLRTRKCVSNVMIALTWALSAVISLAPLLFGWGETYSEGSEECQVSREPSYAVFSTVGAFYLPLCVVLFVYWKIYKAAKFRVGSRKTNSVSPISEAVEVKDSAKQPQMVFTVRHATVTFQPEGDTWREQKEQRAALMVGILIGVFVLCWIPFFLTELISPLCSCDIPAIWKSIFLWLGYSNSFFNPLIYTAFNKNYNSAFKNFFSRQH

[5] = r5-HT2C EC50, Ca2+ mobilization

Chain of 5-HT1D (P28221 whole entry): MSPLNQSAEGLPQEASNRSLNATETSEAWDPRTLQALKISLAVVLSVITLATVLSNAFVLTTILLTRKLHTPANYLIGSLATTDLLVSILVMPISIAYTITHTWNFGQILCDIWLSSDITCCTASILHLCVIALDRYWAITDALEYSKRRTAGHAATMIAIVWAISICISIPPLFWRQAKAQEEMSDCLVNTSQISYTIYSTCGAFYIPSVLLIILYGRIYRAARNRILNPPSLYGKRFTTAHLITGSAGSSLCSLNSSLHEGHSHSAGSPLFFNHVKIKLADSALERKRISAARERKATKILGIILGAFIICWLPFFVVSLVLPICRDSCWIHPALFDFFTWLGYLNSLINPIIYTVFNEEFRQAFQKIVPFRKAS
Chain of 5-HT7 (P34969 whole entry): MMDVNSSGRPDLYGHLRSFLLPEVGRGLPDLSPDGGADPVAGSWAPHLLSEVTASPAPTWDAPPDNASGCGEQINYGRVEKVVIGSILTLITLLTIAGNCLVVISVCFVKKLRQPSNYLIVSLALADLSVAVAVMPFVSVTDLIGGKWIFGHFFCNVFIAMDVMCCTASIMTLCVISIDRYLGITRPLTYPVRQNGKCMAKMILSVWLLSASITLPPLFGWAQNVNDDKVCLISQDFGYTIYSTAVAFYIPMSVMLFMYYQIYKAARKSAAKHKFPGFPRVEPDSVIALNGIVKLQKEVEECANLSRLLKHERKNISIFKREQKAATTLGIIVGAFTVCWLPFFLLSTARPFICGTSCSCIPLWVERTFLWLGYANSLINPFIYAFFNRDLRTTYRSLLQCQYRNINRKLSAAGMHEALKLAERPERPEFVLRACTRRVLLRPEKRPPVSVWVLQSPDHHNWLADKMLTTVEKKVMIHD

`COc1ccc2[nH]cc(CCNCc3ccccc3Br)c2c1` [Compound 5d, N-(2-Bromobenzyl)-2-(5-methoxy-1H-indol-3-yl)ethan-1-amine] showed a Ki (5-HT1D) of 782 nM, a Ki (5-HT7; 5-HT7 affinity) of 1090 nM and a Ki (5-HT6; 5-HT6 affinity) of 203 nM. The Ki (5-HT3) was 6170 nM, the EC50 (r5-HT2C; [5]) was 898 nM and the Emax (r5-HT2C) was 104 ± 3%. It also gave a Ki (5-HT2B; 5-HT2B pKi ± SEM) of 24 nM, a Ki (human 5-HT2C receptor [1]) of 14.1 nM and an Emax (h5-HT2C) of 94 ± 5%. For the same compound, the EC50 (h5-HT2C) was 439 nM, the Ki (5-HT2A receptor [2]) was 25.1 nM and the EC50 (r5-HT2A) was 450 nM. For the same compound, the Emax (r5-HT2A) was 49.7 ± 1.2%, the Ki (5-HT1B; 5-HT1B affinity) was greater than 10000 nM and the Ki (5-HT1A) was 286 nM. It also gave a Ki (human 5-HT2C receptor [3]) of 100 nM, an EC50 (h5-HT2A) of 30 nM and an Emax (h5-HT2A) of 74.7 ± 1.5%. For the same compound, the Ki (5-ht1e) was greater than 10000 nM, the Ki (5-HT2A receptor [4]) was 2.34 nM and the “selectivity h5-HT2A versus h5-HT2C, affinity at the [125I]-DOI-labeled receptors” value (5-HT2A receptor [4]; agonist-labeled receptors) was 6 fold. The Emax (h5-HT2B) was no more than 15%, the EC50 (h5-HT2B) was 168 nM and the “activity in the HTR assay (active / inactive)” value (Male C57BL/6J mice; SC, doses up to 30 mg/kg) was “failed to induce the HTR; also recorded: inactive”. The Ki (5-ht5a) was greater than 10000 nM.

Compound `COc1ccc2[nH]cc(CCNCc3cccc(Cl)c3)c2c1` [Compound 5h, N-(3-Chlorobenzyl)-2-(5-methoxy-1H-indol-3-yl)ethan-1-amine] has a Ki (5-HT1D) of 282 nM, a Ki (5-HT7; 5-HT7 affinity) of 281 nM and a Ki (5-HT6; 5-HT6 affinity) of 50 nM. For the same compound, the Ki (5-HT3) was greater than 10000 nM, the EC50 (r5-HT2C; [5]) was 286 nM and the Emax (r5-HT2C) was 105 ± 2%. The Ki (5-HT2B; 5-HT2B affinity) was 6.6 nM, the Ki (5-HT2B; 5-HT2B pKi ± SEM) was 6.92 nM and the Ki (human 5-HT2C receptor [1]) was 4.27 nM. It also gave an Emax (h5-HT2C) of 85 ± 6%, an EC50 (h5-HT2C) of 316 nM and a Ki (5-HT2A receptor [2]) of 5.25 nM. For the same compound, the EC50 (r5-HT2A) was 83 nM, the Emax (r5-HT2A) was 70.1 ± 1% and the Ki (5-HT1B; 5-HT1B affinity) was 4390 nM. For the same compound, the Ki (5-HT1A) was 195 nM, the Ki (human 5-HT2C receptor [3]) was 28.2 nM and the EC50 (h5-HT2A) was 14 nM. The Emax (h5-HT2A) was 81.2 ± 1.3%, the Ki (5-ht1e) was greater than 10000 nM and the Ki (5-HT2A receptor [4]) was 1.05 nM. It also gave an Emax (h5-HT2B) of no more than 15%, an EC50 (h5-HT2B) of 50 nM and a max counts (Male C57BL/6J mice; SC) of 10.6. For the same compound, the ED50 (Male C57BL/6J mice) was 4.43 mg/kg, the “magnitude of peak effect × vehicle” value (Male C57BL/6J mice; SC) was 8.0 × vehicle and the maximally effective dose (Male C57BL/6J mice; SC) was 30 mg/kg. For the same compound, the Ki (5-ht5a) was 2310 nM.

`COc1ccc2[nH]cc(CCNCc3cccc(I)c3)c2c1` [Compound 5i, N-(3-Iodobenzyl)-2-(5-methoxy-1H-indol-3-yl)ethan-1-amine] was tested, and the Ki (5-HT1D) was 199 nM, the Ki (5-HT7; 5-HT7 pKi ± SEM) was 21.9 nM and the Ki (5-HT6; 5-HT6 affinity) was 27 nM. For the same compound, the Ki (5-HT6; 5-HT6 pKi ± SEM) was 26.3 nM, the Ki (5-HT3) was greater than 10000 nM and the EC50 (r5-HT2C; [5]) was 313 nM. For the same compound, the EC50 (r5-HT2C; r5-HT2C pEC50 ± SEM, Ca2+ mobilization) was 309 nM, the Emax (r5-HT2C) was 110 ± 3% and the Ki (5-HT2B; 5-HT2B affinity) was 0.76 nM. For the same compound, the Ki (human 5-HT2C receptor [1]) was 1.05 nM, the Emax (h5-HT2C) was 94 ± 5% and the EC50 (h5-HT2C) was 445 nM. For the same compound, the Ki (5-HT2A receptor [2]) was 3.47 nM, the EC50 (r5-HT2A) was 120 nM and the Emax (r5-HT2A) was 73.4 ± 1.4%. For the same compound, the “5-HT1B pKi ± SEM” value (5-HT1B) was 5.53 ± 0.05, the Ki (5-HT1B; read-out: 5-HT1B affinity) was 2960 nM and the Ki (5-HT1A) was 122 nM. It also gave a Ki (human 5-HT2C receptor [3]) of 6.46 nM, an EC50 (h5-HT2A) of 16 nM and an Emax (h5-HT2A) of 79 ± 1.1%. For the same compound, the Ki (5-ht1e) was greater than 10000 nM, the Ki (5-HT2A receptor [4]) was 0.62 nM and the “h5-HT2A Ki” value (5-HT2A receptor [4]; [125I]DOI) was “subnanomolar affinity”. For the same compound, the Emax (h5-HT2B) was 31 ± 2%, the EC50 (h5-HT2B) was 43 nM and the max counts (Male C57BL/6J mice; SC) was 20.2. The ED50 (Male C57BL/6J mice) was 7.77 mg/kg, the “magnitude of peak effect × vehicle” value (Male C57BL/6J mice; SC) was 3.4 × vehicle and the maximally effective dose (Male C57BL/6J mice; SC) was 30 mg/kg. For the same compound, the Ki (5-ht5a) was 1540 nM.
